{"source": "paper PMC2652713", "about": "“Molecular Blocking of CD23 Supports Its Role in the Pathogenesis of Arthritis” (PLoS ONE, 2009)", "key": {"[1]": {"tested_on": "human CD23+ monocyte-derived macrophages", "assay": "Inflammatory gene transcription array in CD23-activated macrophages of healthy donors", "format": "cell-based", "protocol": "Figure 3 Inhibition of inflammatory gene transcription by p30A in CD23-stimulated macrophages. Human CD23^+ monocyte-derived macrophages were incubated with cross-linking CD23-McAb (20 µg/ml) alone or following 1 h pre-incubation with 10 µg/ml of p30A. Controls, activated cells with/without p30A pre-incubation are figured. IL-1β, TNF-α and actin (ACT) mRNA location are indicated by arrows. Shown is one representative experiment out of three. TEXT PRINTED IN THE PICTURE: p30A: Expressed Genes: 28 / 114 (Activated + p30A)\nMonocytes or macrophages were activated through CD23 pathway: while monocytes/macrophages from RA patients express CD23, monocytes from healthy donors must be pre-activated to express surface CD23 as described. This pre-activation was obtained by incubation of healthy monocytes with recombinant human IL-4 (20 ng/ml) during 48 h at 37°C; After washing, all cell populations were tested by flow cytometry for their surface CD23 expression (>80% CD23^+) and then incubated in the presence of cross-linking CD23-MAb (clones 135 or DM2, IgG1k, 20 µg/ml) during 48–72 h, or IgE and anti-IgE as described, [17]. When indicated, peptides were added to the cells 2 h prior to their activation. Cells supernatants were then analyzed for their nitric oxide content (see below) and for the presence of cytokines: levels of TNF-α and IL-6 were determined in duplicates for each sample by a specific ELISA (R&D, Paris, France) while levels of IL-1β, IL-8 and IL-10 was determined using FlowCytomix Human Th1/Th2 Kit as recommended (Bender Medsystems, Vienna, Austria).\nFollowing cultures, total RNA was extracted using RNeasy kit (Qiagen, Hilden, Germany). Synthesis, purification and hybridization of biotin-labeled cRNA (6 µg) to custom array membranes were performed according to manufacturer's recommendations (Oligo GEArray® Human Inflammatory Cytokines and Receptors Microarray, ref OHS-011, Superarray Bioscience, Frederick, MD). After local background subtraction, average signal intensity from duplicate spots was compared to values obtained for housekeeping genes using AlphaImager HP automatic image capture software (Alpha-Innotec, San Leandro, CA). For each gene, modulation was defined as the relative expression value for stimulated vs. control sample."}, "[2]": {"tested_on": "RA patients derived monocytes/macrophages", "assay": "Inflammatory mediator release from rheumatoid arthritis patients' monocytes/macrophages", "format": "cell-based, human", "conditions": "peripheral and synovial fluid monocytes/macrophages of 7 RA patients; 1 h pre-incubation, CD23 activation; 72 h", "description": "Figure 5 p30A inhibits the production of CD23-dependent inflammatory mediator release in cells from rheumatoid arthritis (RA) patients. (A) PBL and synovial monocytes/macrophages from RA patients were labeled with anti-CD23-FITC or isotype-matched (Iso) McAb and compared to healthy PBL. Representative fluorescence intensity data obtained from one case, out of 11 distinct patients or healthy individuals. (B) Inhibition of inflammatory mediator release from RA patients derived monocytes/macrophages. PBL monocytes or macrophages collected from synovial liquid were activated through CD23 after 1 h pre-incubation with/without p30A or pCtl. Cell supernatants were collected 72 h later and nitrites, TNF-α and IL-6 were quantified. Values are expressed as mean±s.e.m from 7 patients' cells.\nPeripheral blood samples pre-tested for the absence of HIV or hepatitis virus infections were obtained from healthy volunteers (EFS Aquitaine, Bordeaux Blood Bank). We also collected paired peripheral blood and synovial fluid from seven patients, who fulfilled the American College of Rheumatology criteria for RA, during arthritic crisis. Written informed consent was obtained from all the patients. This study was carried out in compliance with the Helsinski Declaration and was approved by the National Ethical Authorities. All seven patients had previously received conventional therapy but none has been given TNF blocker or any other biologic treatment for their condition. […]\nMonocytes or macrophages were activated through CD23 pathway: while monocytes/macrophages from RA patients express CD23, monocytes from healthy donors must be pre-activated to express surface CD23 as described. […] Cells supernatants were then analyzed for their nitric oxide content (see below) and for the presence of cytokines: levels of TNF-α and IL-6 were determined in duplicates for each sample by a specific ELISA (R&D, Paris, France) while levels of IL-1β, IL-8 and IL-10 was determined using FlowCytomix Human Th1/Th2 Kit as recommended (Bender Medsystems, Vienna, Austria). […]"}}}
{"substance": "FHENWPS [p30A]", "values": [{"measurement": "inhibition of expression of inflammatory mRNAs", "setting": "[1]; CD23-activated macrophages of healthy donors", "value": "inhibits the expression of most of the above mRNAs"}, {"measurement": "expressed mRNAs: Chemokine Receptors", "setting": "[1]; activated cells + p30A", "value": "CCR1, CCR5, CCR7, CXCR4"}, {"measurement": "expressed mRNAs: Chemokines Other subfamily members", "setting": "[1]; activated cells + p30A", "value": "BCL6, BLR1, C3"}, {"measurement": "expressed mRNAs: Chemokines Subfamily A (Cys-Cys)", "setting": "[1]; activated cells + p30A", "value": "CCL15, CCL17, CCL18, CCL19, CCL3, CCL4, CCL5"}, {"measurement": "expressed mRNAs: Interleukins and their Receptors", "setting": "[1]; activated cells + p30A", "value": "IL10RA, IL10RB, IL11RA, IL17R, IL1R1, IL1R2, IL2RA, IL2RG, IL6R"}, {"measurement": "expressed mRNAs: Other related genes", "setting": "[1]; activated cells + p30A", "value": "LTB4R, MIF"}, {"measurement": "expressed mRNAs: TNF Ligands and Receptors", "setting": "[1]; activated cells + p30A", "value": "LTA (LT- α), LTB (LT-β), TNFRSF1B (TNFR2)"}, {"measurement": "number of expressed genes detected/114", "setting": "[1]; activated cells + p30A (10 µg/ml, 1 h pre-incubation; CD23-McAb 20 µg/ml), comparators: non activated cells 14, activated cells 53", "value": 28}, {"measurement": "IL-6 release", "setting": "[2]", "value": "reversed inflammatory mediators at the same levels than control cell-supernatants"}, {"measurement": "TNF-α release", "setting": "[2]", "value": "reversed inflammatory mediators at the same levels than control cell-supernatants"}, {"measurement": "nitric oxide (nitrites) release", "setting": "[2]", "value": "reversed inflammatory mediators at the same levels than control cell-supernatants"}]}
